# Laboratory results taken from patent US20240041042A1, “1-(PYRIDYL)-5-AZINYLPYRAZOLE DERIVATIVES, AND THEIR USE FOR CONTROL OF UNDESIRED PLANT GROWTH” (Bayer Aktiengesellschaft, priority 2020, published 2024).
# Tests used:
# Type in all cases: in vivo
# [1] = system: Alopecurus myosuroides (ALOMY); assay: Pre-emergence herbicidal action against ALOMY; details: scored visually after about 3 weeks, 100% = plants have died
# Method in brief: (§1)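 Greenhouse pot trial: seeds sown, soil-covered, sprayed before emergence with compound in water (0.5% additive; 600 l/ha; ≤320 g/ha). Scoring visual, ~3 weeks, 0–100% scale vs untreated.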
# [2] = system: Amaranthus retroflexus (AMARE); assay: Pre-emergence herbicidal action against AMARE; details: visual scoring after about 3 weeks vs untreated controls
# Method in brief: as §1
# [3] = system: Avena fatua (AVEFA); assay: Pre-emergence herbicidal action against AVEFA; details: 320 g/ha, visual scoring after about 3 weeks vs untreated controls
# Method in brief: as §1
# [4] = system: Digitaria sanguinalis (DIGSA); assay: Pre-emergence herbicidal action against DIGSA
# Description: Seeds of monocotyledonous and dicotyledonous weed plants and crop plants are placed in plastic or organic planting pots and covered with soil. The compounds of the invention, formulated in the form of wettable powders (WP) or as emulsion concentrates (EC), are then applied to the surface of the covering soil as aqueous suspension or emulsion with addition of 0.5% additive at a water application rate equivalent to 600 l/ha. After the treatment, the pots are placed in a greenhouse and kept under good growth conditions for the trial plants. After about 3 weeks, the effect of the preparations is scored visually in comparison with untreated controls as percentages. For example, 100% activity=the plants have died, 0% activity=like control plants.
# Tables A1 to A13 below show the effects of selected compounds of the general formula (I) on various harmful plants and at an application rate corresponding to 320 g/ha or lower, which were obtained by the experimental procedure mentioned above. The appendices “a”, “b” and “c” give differentiation by dosage used with otherwise the same harmful plants tested.
# [5] = system: Echinochloa crus-galli (ECHCG); assay: Pre-emergence herbicidal action against ECHCG
# Method in brief: as §1
# [6] = system: Lolium rigidum (LOLRI); assay: Pre-emergence herbicidal action against LOLRI
# Method in brief: as §1
# [7] = system: Matricaria inodora (MATIN); assay: Pre-emergence herbicidal action against MATIN
# Method in brief: as §1
# [8] = system: Pharbitis purpurea (PHBPU); assay: Pre-emergence herbicidal action against PHBPU
# Method in brief: as §1
# [9] = system: Polygonum convolvulus (POLCO); assay: Pre-emergence herbicidal action against POLCO
# Method in brief: as §1
# [10] = system: Setaria viridis (SETVI); assay: Pre-emergence herbicidal action against SETVI
# Method in brief: as §1
# [11] = system: Verconica persica (VERPE); assay: Pre-emergence herbicidal action against VERPE; details: dosage 320 g/ha
# Method in brief: as §1
# [12] = system: Viola tricolor (VIOTR); assay: Pre-emergence herbicidal action against VIOTR
# Method in brief: as §1
# [13] = system: Abutilon theophrasti (ABUTH); assay: Post-emergence herbicidal action against ABUTH; details: 80 g/ha, visual rating about 3 weeks after treatment vs untreated controls (100% = plants have died, 0% = like control plants)
# Method in brief: (§2)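 Post-emergence greenhouse spray, one-leaf stage, 600 l/ha water plus 0.5% additive; WP or EC formulations; application rates 320 g/ha or lower. Visual % damage vs untreated controls at ~3 weeks.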
# [14] = system: Alopecurus myosuroides (ALOMY); assay: Post-emergence herbicidal action against ALOMY; details: visual rating about 3 weeks after treatment vs untreated controls (100% = plants have died, 0% = like control plants)
# Method in brief: as §2
# [15] = system: Digitaria sanguinalis (DIGSA); assay: Post-emergence herbicidal action against DIGSA; details: visual rating about 3 weeks after treatment
# Method in brief: as §2
# [16] = system: Echinochloa crus-galli (ECHCG); assay: Post-emergence herbicidal action against ECHCG
# Method in brief: as §2
# [17] = system: Pharbitis purpurea (PHBPU); assay: Post-emergence herbicidal action against PHBPU
# Method in brief: as §2
# [18] = system: Polygonum convolvulus (POLCO); assay: Post-emergence herbicidal action against POLCO
# Method in brief: as §2
# [19] = system: Setaria viridis (SETVI); assay: Post-emergence herbicidal action against SETVI
# Method in brief: as §2
# [20] = system: Verconica persica (VERPE); assay: Post-emergence herbicidal action against VERPE
# Method in brief: as §2
# [21] = system: Viola tricolor (VIOTR); assay: Post-emergence herbicidal action against VIOTR
# Method in brief: as §2
# [22] = system: Lolium rigidum (LOLRI); assay: Post-emergence herbicidal action against LOLRI
# Method in brief: as §2
# [23] = system: Amaranthus retroflexus (AMARE); assay: Post-emergence herbicidal action against AMARE
# Method in brief: as §2
# [24] = system: Avena fatua (AVEFA); assay: Post-emergence herbicidal action against AVEFA; details: visual rating about 3 weeks after treatment
# Method in brief: as §2
# [25] = system: Oryza sativa (ORYSA); details: crop plant compatibility, 80 g/ha, effect in comparison to untreated controls
# Method in brief: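 Visual rating (% effect vs. untreated plants; 100% = plant death) made about 3 weeks after treatment. Plants had been sprayed at one-leaf stage, 2–3 weeks post-sowing, with aqueous WP/EC preparations containing 0.5% additive, 600 l/ha water volume; a, b, c mark dose levels.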
# [26] = 80 g/ha, visual scoring after about 3 weeks vs untreated controls
smiles,measurement,setting,value
CCOC(=O)COc1nn(-c2ncccc2F)c(-c2ccc(F)nc2)c1Cl [Example I-38],Pre-emergence action against ALOMY,[1]; 80 g/ha,100%
same,Pre-emergence action against ALOMY,[1]; 320 g/ha,100%
same,Pre-emergence action against AMARE in %,[2]; 80 g/ha,100%
same,Pre-emergence action against AMARE in %,[2]; 320 g/ha,100%
same,Pre-emergence action against AVEFA in %,[3],100%
same,Pre-emergence action against DIGSA in %,[4]; [26],100%
same,Pre-emergence action against DIGSA in %,[4]; dosage 320 g/ha,100%
same,Pre-emergence action against ECHCG in %,[5]; dosage 320 g/ha,100%
same,Pre-emergence action against LOLRI in %,[6]; dosage 320 g/ha,100%
same,Pre-emergence action against MATIN in %,[7]; dosage 80 g/ha,100%
same,Pre-emergence action against MATIN in %,[7]; dosage 320 g/ha,100%
same,Pre-emergence action against PHBPU in %,[8]; dosage 320 g/ha,90%
same,Pre-emergence action against POLCO in %,[9]; dosage 80 g/ha,90%
same,Pre-emergence action against POLCO in %,[9]; dosage 320 g/ha,100%
same,Pre-emergence action against SETVI in %,[10]; dosage 80 g/ha,100%
same,Pre-emergence action against SETVI in %,[10]; dosage 320 g/ha,100%
same,Pre-emergence action against VERPE in %,[11],100%
same,Pre-emergence action against VIOTR in %,"[12]; 320 g/ha, Viola tricolor",100%
same,Pre-emergence action against VIOTR in %,[12]; dosage 80 g/ha,100%
same,Post-emergence action against ABUTH in %,[13],80%
same,Post-emergence action against ALOMY in %,[14]; 80 g/ha,100%
same,Post-emergence action against DIGSA in %,[15]; 80 g/ha,90%
same,Post-emergence action against ECHCG in %,[16]; dosage 80 g/ha,90%
same,Post-emergence action against PHBPU in %,[17]; dosage 80 g/ha,90%
same,Post-emergence action against POLCO in %,[18]; dosage 80 g/ha,80%
same,Post-emergence action against SETVI in %,[19]; dosage 80 g/ha,80%
same,Post-emergence action against VERPE in %,[20]; dosage 80 g/ha,80%
same,Post-emergence action against VIOTR in %,[21]; 80 g/ha,80%
CCOC(=O)COc1nn(-c2nc(F)ccc2F)c(-c2cncc(F)c2)c1Cl [Example I-163],Pre-emergence action against ALOMY,[1]; 320 g/ha,90%
same,Pre-emergence action against AMARE in %,[2]; 320 g/ha,90%
same,Pre-emergence action against DIGSA in %,[4]; [26],90%
same,Pre-emergence action against DIGSA in %,[4]; dosage 320 g/ha,100%
same,Pre-emergence action against ECHCG in %,[5]; dosage 80 g/ha,80%
same,Pre-emergence action against ECHCG in %,[5]; dosage 320 g/ha,90%
same,Pre-emergence action against LOLRI in %,[6]; dosage 320 g/ha,90%
same,Pre-emergence action against MATIN in %,[7]; dosage 80 g/ha,90%
same,Pre-emergence action against MATIN in %,[7]; dosage 320 g/ha,90%
same,Pre-emergence action against PHBPU in %,[8]; dosage 80 g/ha,90%
same,Pre-emergence action against PHBPU in %,[8]; dosage 320 g/ha,90%
same,Pre-emergence action against POLCO in %,[9]; dosage 80 g/ha,80%
same,Pre-emergence action against POLCO in %,[9]; dosage 320 g/ha,80%
same,Pre-emergence action against SETVI in %,[10]; dosage 80 g/ha,80%
same,Pre-emergence action against SETVI in %,[10]; dosage 320 g/ha,100%
same,Pre-emergence action against VERPE in %,[11],80%
same,Pre-emergence action against VIOTR in %,"[12]; 320 g/ha, Viola tricolor",100%
same,Pre-emergence action against VIOTR in %,[12]; dosage 80 g/ha,90%
same,Post-emergence action against ALOMY in %,[14]; 320 g/ha,80%
same,Post-emergence action against DIGSA in %,[15]; 320 g/ha,80%
same,Post-emergence action against ECHCG in %,[16]; dosage 80 g/ha,80%
same,Post-emergence action against ECHCG in %,[16]; dosage 320 g/ha,80%
same,Post-emergence action against LOLRI in %,[22]; dosage 320 g/ha,80%
same,Post-emergence action against PHBPU in %,[17]; dosage 80 g/ha,80%
same,Post-emergence action against PHBPU in %,[17]; dosage 320 g/ha,90%
same,Post-emergence action against SETVI in %,[19]; dosage 80 g/ha,80%
same,Post-emergence action against SETVI in %,[19]; dosage 320 g/ha,90%
same,Post-emergence action against VIOTR in %,[21]; 320 g/ha,80%
C=C(COC(=O)[C@@H](C)Oc1nn(-c2ccccn2)c(-c2ccc(F)nc2)c1Cl)C(=O)OC [Example I-322],Pre-emergence action against ALOMY,[1]; 80 g/ha,80%
same,Pre-emergence action against ALOMY,[1]; 320 g/ha,100%
same,Pre-emergence action against AMARE in %,[2]; 320 g/ha,100%
same,Pre-emergence action against AVEFA in %,[3],90%
same,Pre-emergence action against DIGSA in %,[4]; [26],100%
same,Pre-emergence action against DIGSA in %,[4]; dosage 320 g/ha,100%
same,Pre-emergence action against ECHCG in %,[5]; dosage 80 g/ha,80%
same,Pre-emergence action against ECHCG in %,[5]; dosage 320 g/ha,100%
same,Pre-emergence action against LOLRI in %,[6]; dosage 80 g/ha,90%
same,Pre-emergence action against LOLRI in %,[6]; dosage 320 g/ha,100%
same,Pre-emergence action against MATIN in %,[7]; dosage 320 g/ha,80%
same,Pre-emergence action against PHBPU in %,[8]; dosage 320 g/ha,90%
same,Pre-emergence action against POLCO in %,[9]; dosage 80 g/ha,80%
same,Pre-emergence action against POLCO in %,[9]; dosage 320 g/ha,90%
same,Pre-emergence action against SETVI in %,[10]; dosage 80 g/ha,90%
same,Pre-emergence action against SETVI in %,[10]; dosage 320 g/ha,100%
same,Pre-emergence action against VIOTR in %,"[12]; 320 g/ha, Viola tricolor",100%
same,Pre-emergence action against VIOTR in %,[12]; dosage 80 g/ha,80%
same,Post-emergence action against ALOMY in %,[14]; 320 g/ha,80%
same,Post-emergence action against AMARE in %,"[23]; 80 g/ha, visual rating about 3 weeks after treatment vs untreated controls (100% = plants have died, 0% = like control plants)",80%
same,Post-emergence action against AMARE in %,"[23]; 320 g/ha, visual rating about 3 weeks after treatment",80%
same,Post-emergence action against AVEFA in %,[24]; 80 g/ha,80%
same,Post-emergence action against AVEFA in %,[24]; 320 g/ha,80%
same,Post-emergence action against DIGSA in %,[15]; 80 g/ha,80%
same,Post-emergence action against DIGSA in %,[15]; 320 g/ha,80%
same,Post-emergence action against ECHCG in %,[16]; dosage 320 g/ha,80%
same,Post-emergence action against LOLRI in %,[22]; dosage 80 g/ha,80%
same,Post-emergence action against LOLRI in %,[22]; dosage 320 g/ha,80%
same,Post-emergence action against PHBPU in %,[17]; dosage 80 g/ha,80%
same,Post-emergence action against PHBPU in %,[17]; dosage 320 g/ha,80%
same,Post-emergence action against POLCO in %,[18]; dosage 80 g/ha,80%
same,Post-emergence action against POLCO in %,[18]; dosage 320 g/ha,80%
same,Post-emergence action against SETVI in %,[19]; dosage 80 g/ha,80%
same,Post-emergence action against SETVI in %,[19]; dosage 320 g/ha,80%
same,Post-emergence action against VERPE in %,"[20]; 320 g/ha, VERPE",80%
same,Post-emergence action against VERPE in %,[20]; dosage 80 g/ha,80%
same,Post-emergence action against VIOTR in %,[21]; 80 g/ha,80%
same,Post-emergence action against VIOTR in %,[21]; 320 g/ha,80%
same,Post-emergence action against ORYSA in %,[25],10%
